In EPA's ToxValDB 9.5:

Test system: Rattus norvegicus
Settings: oral
[1] = short-term, duration: 28 days, gavage, F, Sprague-Dawley, Clinical Observation: Staggering gait Locomotor activity decrease, Lacrimation Prone position Loose stool + Functional Observational Battery…
[2] = short-term, duration: 28 days, gavage, M, Sprague-Dawley, Clinical Observation: Staggering gait Locomotor activity decrease, Lacrimation Prone position Loose stool + Functional Observational Battery…
[3] = short-term, duration: 28 days, gavage, F, Sprague-Dawley, Clinical Observation: Staggering gait + Body Weight Changes: decrease, Gain decrease + Urinalysis: pH decrease, Protein decrease, Volume …
[4] = short-term, duration: 28 days, gavage, M, Sprague-Dawley, Clinical Observation: Staggering gait + Body Weight Changes: decrease, Gain decrease + Urinalysis: pH decrease, Protein decrease, Volume …

CCNc1cccc2ccccc12 [1-Naphthalenamine, N-ethyl-]
NOEL (short-term, duration: 28 days, gavage, M/F, Sprague-Dawley, Deaths + Clinical Observation: Brown urine Soft feces + Functional Observational Battery: Motor activity decrease + Body Weight Changes: …): 12 mg/kg-day

CCC[N+](=O)[O-] [1-Nitropropane]
NOAEL (short-term, duration: 28 days, gavage, M/F, Sprague-Dawley, Deaths + Clinical Observation: Salivation Red/brown staining around the mouth Hunched posture + Body Weight Changes: Body weight gain …): 30 mg/kg-day

NC(=O)Nc1ccccc1 [1-Phenylurea]
LOEL [1]: 400 mg/kg-day | NOEL [1]: 200 mg/kg-day | LOEL [2]: 200 mg/kg-day | NOEL [2]: 100 mg/kg-day

CCCCCCCCCCCCC(CO)CCCCCCCCCC (configuration not stated) [1-Tetradecanol, 2-decyl-]
NOAEL (subchronic, gavage, M, Sprague-Dawley, Urinalysis: Occult blood + Hematology: PT increase, APTT increase + Blood Chemistry: LDH increase): 62.5 mg/kg-day

CC1(C)COC(=O)C1O (configuration not stated) [2(3H)-Furanone, dihydro-3-hydroxy-4,4-dimethyl-]
NOAEL (short-term, duration: 28 days, gavage, M, Sprague-Dawley, Blood Chemistry: K increase): 200 mg/kg-day

O=C(Nc1ccccc1SSc1ccccc1NC(=O)c1ccccc1)c1ccccc1 [2,2'-Dibenzoylaminodiphenyl disulfide]
NOEL (subchronic, gavage, M, Sprague-Dawley, Clinical Observation: Salivation + Blood Chemistry: ALT increase, Glu increase + Absolute Organ Weight: Liver increase + Relative Organ …): 300 mg/kg-day

Cc1cc(Cc2cc(C)cc(C(C)(C)C)c2O)c(O)c(C(C)(C)C)c1 [2,2'-Methylenebis(4-methyl-6-tert-butylphenol)]
NOEL (subchronic, diet, F, Wistar, Deaths: Survival rate.6 (45% % ).0 (20% % ) + Body Weight Changes: decrease + Food Consumption: decrease + Hematology: Hgb decrease RBC …): < 104 mg/kg-day | NOEL (subchronic, diet, M/F, Wistar, Deaths: Survival rate.6 (45% % ).0 (20% % ) + Body Weight Changes: decrease + Food Consumption: decrease + Hematology: Hgb decrease RBC …): < 0.12% | NOEL (subchronic, diet, M/F, Wistar, Hematology: Hgb increasemg/kg/ + Blood Chemistry: Cho increasemg/kg/ + Absolute Organ Weight: Liver increasemg/kg/ + Relative Organ …): 1.92 mg/kg-day

Nc1ccccc1OCCOc1ccccc1N [2,2'-[Ethane-1,2-diylbis(oxy)]dianiline]
NOEL (short-term, duration: 28 days, gavage, M/F, Blood Chemistry: Alb increase, T-Bil increase, TG decrease, GPT increase, TP increase + Organ Weight: Liver increase, Kidney increase + …): < 50 mg/kg-day

O=Cc1cccc(Cl)c1Cl [2,3-Dichlorobenzaldehyde]
NOEL (short-term, duration: 28 days, gavage, M/F, Clinical Observation: Salivation + Body Weight Changes: Body weight gain decrease + Blood Chemistry: GPT increase, A/G increase + Organ …): < 20 mg/kg-day

NCCCC1OCC2(CO1)COC(CCCN)OC2 (configuration not stated) [2,4,8,10-Tetraoxaspiro[5.5]undecane-3,9-dipropanamine]
NOEL (subchronic, gavage, M, Sprague-Dawley, Clinical Observation: Locomotor activity decrease, Respiratory irregularity Prone position Salivation + Body Weight Changes: decrease1000…): < 40 mg/kg-day

CC(C)(C)CC(C)(C)c1cc(O)c(C(C)(C)CC(C)(C)C)cc1O [2,5-Bis(1,1,3,3-tetramethylbutyl)hydroquinone]
NOEL (subchronic, gavage, M, Sprague-Dawley, Clinical Observation: Soft stool Soiled perineal region + Body Weight Changes: Gain decrease + Food Consumption: increase + Hematology: Hgb …): 10 mg/kg-day

Nc1ccc([N+](=O)[O-])cc1O [2-Amino-5-nitrophenol]
NOEL (subchronic, duration: 13 weeks, gavage, M/F, Fischer 344, Deaths + Body Weight Changes: decrease + Absolute Organ Weight: Liver increase + Relative Organ Weight: Liver increase + Histopathology: …): < 100 mg/kg-day

CCC(C)=NO [2-Butanone oxime]
NOEL (subchronic, drinking water, F, Fischer 344, Clinical Observation: Dark eyes Pale ears + Body Weight Changes: decrease + Water Consumption: decrease + Hematology: Hct decrease, Hgb …): < 30 mg/kg-day | NOEL (subchronic, drinking water, M/F, Fischer 344, Clinical Observation: Dark eyes Pale ears + Body Weight Changes: decrease + Water Consumption: decrease + Hematology: Hct decrease, Hgb …): < 47.4 mg/kg-day

COc1ccc(OC)c(Cl)c1 [2-Chloro-1,4-dimethoxybenzene]
LOEL [3]: 200 mg/kg-day | NOEL [3]: 40 mg/kg-day | LOEL [4]: 200 mg/kg-day | NOEL [4]: 40 mg/kg-day | NOEL (subchronic, gavage, M, Sprague-Dawley, Hematology: RBC decrease, MCV increase, MCH increase + Blood Chemistry: T-Cho increase, PL increase, Ca increase + Absolute Organ Weight: …): 30 mg/kg-day

Nc1ccc([N+](=O)[O-])cc1Cl [2-Chloro-4-nitroaniline]
NOEL (subchronic, gavage, Sprague-Dawley): 100 mg/kg-day

CCCCC(CC)COC(=O)CS (configuration not stated) [2-Ethylhexyl thioglycolate]
NOAEL (short-term, duration: 28 days, diet, M, Fischer 344, Hematology: WBC decrease Lymph decrease + Blood Chemistry: AST increase): 0.2%

COc1ccc(C)cc1N [2-Methoxy-5-methylaniline]
NOEL (short-term, duration: 28 days, gavage, M/F, Clinical Observation: Salivation + Body Weight Changes: Weight gain decrease + Food Consumption: decrease + Urinalysis: Occult blood RBC …): 2 mg/kg-day
